Measured values: US20160137639A1, “TRIAZOLE-ISOXAZOLE COMPOUND AND MEDICAL USE THEREOF” (JAPAN TOBACCO INC., priority 2012, published 2016)
Where two headings read alike, the source gives them in different places.

Experiments:
mouse RORγ = target: T1, mouse RORγ (Mus musculus, UniProt P51450); experiment: Luciferase reporter gene assay of inhibitory effect against RORγ transcriptional activity (GAL4-mRORγ plasmid in CHO cells); assay type: cell-based
T1 construct: mouse, NM_011281.2 and from Ile251 to Lys516; expressed in transfected cells; host or cells: CHO cells (transient co-transfection with pG5-Luc reporter)
T1 sequence (P51450 251-516): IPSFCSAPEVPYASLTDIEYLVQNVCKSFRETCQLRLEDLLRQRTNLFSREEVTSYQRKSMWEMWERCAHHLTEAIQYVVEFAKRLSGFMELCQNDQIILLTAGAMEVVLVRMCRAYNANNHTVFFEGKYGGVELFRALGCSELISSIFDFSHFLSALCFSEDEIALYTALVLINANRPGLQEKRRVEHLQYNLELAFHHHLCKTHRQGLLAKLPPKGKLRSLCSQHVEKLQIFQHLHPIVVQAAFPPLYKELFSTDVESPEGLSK
In short: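 CHO cells transiently co-transfected with GAL4-mouse RORγ LBD (Ile251–Lys516) and GAL4-dependent luciferase reporter; eight compound concentrations, 0.1% DMSO, 2 days at 37 °C. Luminescence as %-of-vehicle control; EC50 by curve fit, cytotoxic concentrations excluded.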

human RORγ = target: T2, human RORγ (Homo sapiens, UniProt P51449); experiment: Luciferase reporter gene assay of inhibitory effect against RORγ transcriptional activity (GAL4-hRORγ plasmid in CHO cells); assay type: cell-based
T2 construct: human, NM_005060.3 and from Ser253 to Lys518; expressed in transfected cells; host or cells: CHO cells (transient co-transfection with pG5-Luc reporter)
T2 sequence (P51449 253-518): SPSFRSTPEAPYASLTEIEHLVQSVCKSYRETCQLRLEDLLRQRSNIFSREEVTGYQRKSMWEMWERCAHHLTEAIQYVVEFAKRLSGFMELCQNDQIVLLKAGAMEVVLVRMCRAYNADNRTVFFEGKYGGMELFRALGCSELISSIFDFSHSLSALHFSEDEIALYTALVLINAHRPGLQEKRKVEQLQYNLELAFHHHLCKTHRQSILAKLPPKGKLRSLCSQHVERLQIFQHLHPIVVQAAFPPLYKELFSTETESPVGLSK

Compound | EC50 (mouse RORγ; read-out: LUC EC50 (μM) mRORg) | EC50 (human RORγ; read-out: LUC EC50 (μM) hRORg) | EC50 (mouse RORγ; read-out: LUC EC50 mRORg) | EC50 (human RORγ; read-out: LUC EC50 hRORg)
Cc1ccc(NC(=O)CC(CCOC(=O)N(C)C)c2nnc([C@H]3C[C@@H](CC(C)C)C3)n2C2CC2)c(C)c1 (mixture of isomers) [Example F-484] | < 3 µM | < 3 µM | – | –
COc1cccc(C)c1NC(=O)CCc1nnc(CCC(C)C)n1C1CC1 [Example F-86] | > 3 µM | > 3 µM | – | –
Cc1ccc(NC(=O)CC(CCO)c2nnc(CCCC(C)C)n2C2CC2)c(C)c1 (racemic) [Example F-201] | < 3 µM | < 3 µM | – | –
Cc1ccc(NC(=O)C[C@H](CCC(=O)O)c2nnn([C@H]3C[C@@H](CC(C)(C)C(C)C)C3)c2C2CC2)c(Cl)c1 [Example F-713] | – | – | < 3 µM | < 3 µM
CC(=O)N1C[C@H](C(=O)Nc2ccc(C)cc2C)[C@@H](c2nnc(C3CC3CC(C)C)n2C2CC2)C1 (mixture of isomers) [Example F-340] | < 3 µM | > 3 µM | – | –
Cc1c(Cl)cccc1NC(=O)CC(CCCO)c1nnc(CCC(C)C)n1C1CC1 (racemic) [Example F-196] | < 3 µM | < 3 µM | – | –
Cc1ccc(NC(=O)CCc2nnn(CCC3CCCCC3)c2C2CC2)c(C)c1 [Example F-443] | < 3 µM | < 3 µM | – | –
Cc1c(Cl)cccc1NC(=O)CC(CCN1C(=O)c2ccccc2C1=O)c1nnc(CCCC(C)C)n1C1CC1 (racemic) [Example F-224] | < 3 µM | < 3 µM | – | –
Cc1ccc(NC(=O)CCc2noc([C@H]3C[C@@H](CC(C)C)C3)c2/C=C/C(=O)O)c(C)c1 [Example F-646] | – | – | > 3 µM | > 3 µM
C=CCC(CC(=O)Nc1ccc(C)cc1C)c1nnc(CCCC(C)C)n1C1CC1 (racemic) [Example F-198] | < 3 µM | < 3 µM | – | –
Cc1ccc(NC(=O)C[C@H](CC(C)C)c2nnc([C@H]3C[C@@H](CC(C)C)C3)n2C2CC2)c(C)c1 [Example F-590] | – | – | < 3 µM | < 3 µM
Cc1ccc(NC(=O)CC(CO)c2nnc(CCCC(C)C)n2C2CC2)c(C)c1 (racemic) [Example F-271] | < 3 µM | < 3 µM | – | –
CCn1c(CCC(=O)Nc2cccc3ccccc23)nnc1CC1CCCCC1 [Example F-17] | < 3 µM | > 3 µM | – | –
CCC[C@@H](CC(=O)Nc1ccc(C)cc1C)c1nnc(CCCC(C)(C)C)n1C1CC1 [Example F-528] | – | – | < 3 µM | < 3 µM
CCn1c(CCC(=O)Nc2cccc(Cl)c2C)nnc1CCC1CCCCC1 [Example F-39] | < 3 µM | < 3 µM | – | –
Cc1ccc(NC(=O)C[C@H](OCC(F)(F)F)c2nnc(-c3cc(CC(C)C)on3)n2C2CC2)c(C)c1 [Example F-629] | – | – | < 3 µM | < 3 µM
CCOC(=O)CCc1nnc(CCC(=O)Nc2cccc(Cl)c2C)n1C1CC1 [Example F-183] | > 3 µM | > 3 µM | – | –
Cc1ccc(NC(=O)C[C@H](CCO)c2nnc(CCC3CCCCC3)n2C2CC2)c(C)c1 [Example F-385] | < 3 µM | < 3 µM | – | –
Cc1ccc(NC(=O)C[C@H](CC(C)C)c2nnc(-c3cc(CC(C)(C)C)on3)n2C2CC2)c(C)c1 [Example F-625] | – | – | < 3 µM | < 3 µM
Cc1ccc(NC(=O)C[C@H](CCC(=O)O)c2noc(-c3cc(CCC(C)(C)C)on3)c2C2CC2)c(F)c1 [Example E-31] | < 3 µM | < 3 µM | – | –
CCC(C)(C)C[C@H]1C[C@@H](c2onc([C@@H](CCC(=O)O)CC(=O)Nc3ccc(C)nc3C)c2C2CC2)C1 [Example F-692] | – | – | < 3 µM | < 3 µM
CC(C)CCc1nnc(CCC(=O)Nc2cnc3ccccn23)n1C1CC1 [Example F-134] | > 3 µM | > 3 µM | – | –
Cc1ccc(NC(=O)C[C@H](CCC(=O)O)c2noc(-c3cc(C4(CC(C)C)CC4)on3)c2C2CC2)c(Cl)c1 [Example E-23] | < 3 µM | < 3 µM | – | –
CCCn1c(CCC(=O)Nc2cccc3ccccc23)nnc1C1Cc2ccccc2C1 [Example F-5] | > 3 µM | > 3 µM | – | –
CC(=O)N1C[C@H](C(=O)Nc2ccc(C)cc2C)[C@@H](c2nnc(C3CC3CC(C)C)n2C2CC2)C1 (mixture of isomers) [Example F-341] | < 3 µM | < 3 µM | – | –
Cc1cc(C)cc(NC(=O)CCc2nnc(CCC(C)C)n2C2CC2)c1 [Example F-76] | > 3 µM | > 3 µM | – | –

Compound | EC50 (mouse RORγ; read-out: LUC EC50 (μM) mRORg) | EC50 (human RORγ; read-out: LUC EC50 (μM) hRORg) | EC50 (mouse RORγ; read-out: LUC EC50 mRORg) | EC50 (human RORγ; read-out: LUC EC50 hRORg)
Cc1ccc(NC(=O)[C@H]2C[C@H](O)C[C@@H]2c2nnc([C@H]3C[C@@H](CC(C)C)C3)n2C2CC2)c(C)c1 (racemic) [Example F-421] | < 3 µM | < 3 µM | – | –
Cc1ccc(NC(=O)CCc2nnc(-c3ccc(C(C)C)cc3)n2C2CC2)c(C)c1 [Example F-320] | < 3 µM | < 3 µM | – | –
Cc1ccc(NC(=O)C[C@@H](c2nnc([C@H]3C[C@@H](CC(C)C)C3)n2C2CC2)N(C)CCO)c(C)c1 [Example F-544] | – | – | < 3 µM | < 3 µM
CC(=O)N1C[C@@H](C(=O)Nc2ccc(C)cc2C)[C@H](c2nnc(CCCC(C)(C)C)n2CC(F)(F)F)C1 [Example F-393] | > 3 µM | > 3 µM | – | –
Cc1ccc(NC(=O)CC(CCOCc2ccccc2)c2nnc(-c3cc(CC(C)C)on3)n2C2CC2)c(C)c1 (racemic) [Example F-455] | < 3 µM | > 3 µM | – | –
CC(C)C(F)(F)c1cc(-c2onc([C@@H](CCC(=O)O)CC(=O)Nc3ccc(F)cc3Cl)c2C2CC2)no1 [Example E-61] | < 3 µM | < 3 µM | – | –
CC(=O)N1C[C@H](C(=O)Nc2ccc(Cl)cc2C)[C@@H](c2nnc([C@H]3C[C@@H](CC(C)C)C3)n2C2CC2)C1 [Example F-603] | – | – | < 3 µM | < 3 µM
Cc1ccc(NC(=O)[C@H]2CC(C)(O)C[C@@H]2c2nnc([C@H]3C[C@@H](CC(C)C)C3)n2C2CC2)c(C)c1 (single isomer, unassigned) [Example F-562] | – | – | < 3 µM | < 3 µM
Cc1c(Cl)cccc1NC(=O)CCc1nnc(CCC(C)(C)C(=O)O)n1C1CC1 [Example F-226] | > 3 µM | > 3 µM | – | –
CC(=O)N1C[C@H](C(=O)Nc2ccc(F)cc2C)[C@@H](c2nnc(CCCC(C)(C)C)n2C2CC2)C1 (racemic) [Example F-333] | < 3 µM | < 3 µM | – | –
COC1C[C@@H](C(=O)Nc2ccc(C)cc2C)[C@H](c2nnc([C@H]3C[C@@H](CC(C)C)C3)n2C2CC2)C1 (single isomer, unassigned) [Example F-555] | – | – | > 3 µM | > 3 µM
CC(C)(C)Cc1cc(-c2noc([C@@H](CCC(=O)O)CC(=O)Nc3ccc(Cl)cc3F)c2C2CC2)no1 [Example E-76] | < 3 µM | < 3 µM | – | –
Cc1ccc(NCc2nnc(CCC(=O)Nc3cccc(Cl)c3C)n2C2CC2)c(C)c1 [Example F-206] | < 3 µM | < 3 µM | – | –
COCCC(CC(=O)Nc1ccc(C)cc1C)c1nnc(CCC2CCCCC2)n1C1CC1 (racemic) [Example F-396] | < 3 µM | < 3 µM | – | –
Cc1ccc(C(F)(F)F)cc1NC(=O)CCc1nnc(CCC(C)C)n1C1CC1 [Example F-151] | > 3 µM | > 3 µM | – | –
Cc1ccc(NC(=O)[C@H]2CN(C(=O)CN(C)C)C[C@@H]2c2nnc([C@H]3C[C@@H](CC(C)C)C3)n2C2CC2)c(C)c1 [Example F-657] | – | – | < 3 µM | > 3 µM
CC(=O)N1C[C@@H](C(=O)Nc2ccc(C)cc2C)[C@H](c2nnc(-c3ccc(CC(C)C)cc3)n2C2CC2)C1 [Example F-407] | > 3 µM | > 3 µM | – | –
Cc1cccnc1CNC(=O)CCc1nnc(CCC(C)C)n1C1CC1 [Example F-110] | > 3 µM | > 3 µM | – | –
CC(=O)N1C[C@H](C(=O)Nc2ccc(C)cc2C)[C@@H](c2nnc([C@H]3C[C@H](c4ccccc4)C3)n2C2CC2)C1 (racemic) [Example F-345] | < 3 µM | < 3 µM | – | –
CC1(Cc2cc(-c3onc([C@@H](CCC(=O)O)CC(=O)Nc4ccc(Cl)cc4F)c3C3CC3)no2)CC1 [Example E-64] | < 3 µM | < 3 µM | – | –
Cc1ccc(NC(=O)CCc2cc([C@H]3C[C@@H](CC(C)(C)C)C3)on2)c(Cl)c1 [Example F-733] | – | – | < 3 µM | < 3 µM
Cc1ccc(NC(=O)C[C@@H](CC(C)(C)O)c2nnc([C@H]3C[C@@H](CC(C)C)C3)n2C2CC2)c(C)c1 [Example F-598] | – | – | > 3 µM | > 3 µM
CC(=O)N1C[C@H](C(=O)Nc2ccc(C)cc2C)[C@@H](c2nnc(-c3cc(C(C)C)on3)n2C2CC2)C1 (racemic) [Example F-350] | < 3 µM | < 3 µM | – | –
CC(C)(C)C[C@H]1C[C@@H](c2onc([C@@H](CCC(=O)O)CC(=O)NC34CC(C3)C4)c2C2CC2)C1 [Example F-712] | – | – | > 3 µM | > 3 µM
Cc1cc(Cl)ccc1NC(=O)C[C@H](CCO)c1nnc(-c2cc(CCC(C)C)on2)n1C1CC1 [Example F-616] | – | – | < 3 µM | < 3 µM
